From patent US20250074946A1, “USE OF SE-DR AFFINITY PEPTIDE IN PREPARING DRUG FOR TREATING RHEUMATIC DISEASE” (HEBEI FITNESS BIOTECHNOLOGY CO., LTD., priority 2021, published 2025)
Where a SMILES comes first, the peptide text is derived from it. Where no end group is shown, it is not given here.

How the values were obtained:
[1] = system: CIA mice infected with chronic hepatitis B; experiment: CIA mice infected with chronic hepatitis B (Example 8); type: in vivo, mouse; settings: for ALT level / Hepatitis B activation rate (Ratio of ALT > 100 U/L): at sacrifice, day 28; for Observation on the daily condition of mice: during administration; for Inflammation score and area under the time curve (AUC): peptides 50 μmol, Abatacept 100 μg, tail i.v. once every other day for 27 days
Description: Establishment of chronic hepatitis B model in mice: DBA/1 mice were injected with Raav8-1. 3 HBV (1×10^12 vg/mL) via tail vein to establish HBV chronic hepatitis B model.
DBA/1 mice infected with chronic hepatitis B were used to establish CIA model with chronic hepatitis B infection. Methods: Two days after the mice were injected with Raav8-1.3 HBV (1×10^12 vg/mL) via tail vein, the emulsion of bovine C II and CFA (containing 100 μg collagen) was intradermally injected into the tail head of the mice for immunization. After 21 days, the mice were boosted once by intraperitoneal injection of the emulsion (containing 100 μg collagen) prepared by bovine C II and IFA. Thereafter, the morphological changes of the four paws of the mice were examined every day, and the mice were randomly assigned to the treatment group at inflammation score of 1. […] Another 10 mice with latent hepatitis B infection were not subjected to model establishment and set as the control group. PBS was administrated to both the model group and the control group. The mice in each group were given the corresponding drugs by tail intravenous injection at the volume of 10 ml/kg, once every other day, for 27 consecutive days. The mice were sacrificed on day 28 after administration. The inflammation scores of the four paws of the mice in each group were evaluated during the administration. The serological indicators for virus injection and liver function of the mice were detected on the day of booster immunization (22 days after tail vein injection) and at the time of sacrifice.

[2] = system: immune system of healthy monkeys; experiment: Immune indicators of cynomolgus monkeys after one month of administration (Example 5); type: in vivo, cynomolgus monkey; settings: once a day for 4 weeks, end of administration
Description: Cynomolgus monkeys were used to investigate the effects of the SE-DR affinity peptide on the immune indicators of cynomolgus monkeys after continuous administration for one month. […] At the end of administration, the immune indicators, including the serum anti-FNS007 antibodies, the immunoglobulins of different serotypes, the serum complement, the peripheral blood T lymphocyte and the serum cytokines, were observed.

[3] = system: immune system of healthy rats; experiment: Immune indicators of SD rats after one month of administration (Example 4); type: in vivo, rat; settings: once a day for 4 weeks, end of administration
Description: SD rats were used to investigate the effects of the SE-DR affinity peptides on the immune indicators of the rats after continuous administration for one month. […] At the end of administration, analysis was conducted on the serum anti-FNS007 antibodies, different types of serum immunoglobulins, the serum complement, the peripheral blood T lymphocyte and the serum cytokines.

CIA rats = experiment: CIA rat model: inflammation score AUC and peripheral blood T-cell subtypes (Example 3); type: in vivo; settings: 0.2 mmol; for Inflammation score and area under the time curve (AUC): female Lewis CIA rats, tail vein once every other day for 15 days; for Th1 (%) / Th2 (%) / Th17 (%) / Treg (%): peripheral blood, […] after end of administration, flow cytometry
Description: Collagen-induced arthritis (CIA) model was established by intradermal injection of the emulsion formulated using type II bovine collagen (CII) together with incomplete Freund's adjuvant (IFA) into the tail head of a female Lewis rat. After the model establishment, the morphological changes of rats' four paws were examined every day. […] Except for the model group, the dosage of polypeptide was all set as 0.2 mmol. A control group was also set up, in which the drug was injected into the tail vein once every other day for […]. The area under the curve (AUC) of the inflammation score was used for the efficacy analysis from the day the rats were enrolled, once every other day, until the end of administration.

PBMC = PBMC stimulation test, IL-6 in supernatant by ELISA; type: cell-based, human; settings: PBMC 1×10^6 cell/ml, peptide 10 μg/ml, 5 days of culture
Description: The SE-DR molecule is directly related to the pathogenesis of RA. It can present RA-related autoantigens in vivo, such as type II collagen (CII), heat shock protein 60 (Hsp60), cartilage glycoprotein (HCgp-39) and so on, and further activate autoreactive T cells, leading to the occurrence of rheumatoid arthritis. An important strategy for the treatment of RA is to use competitive inhibition to block the activation of autoreactive T cells by autoantigen peptides. […] Based on the above principles, we have designed and synthesized a series of altered peptide ligands, and screened for their affinity to SE-DR and for the activation ability on the peripheral blood T cells in RA patients. The specific steps and results are shown in Example 1 and Example 2.
3 mL ficoll was added to a 15 mL centrifuge tube, and 4 mL blood sample was then applied on the surface of ficoll. The tube was centrifuged at 400 g at 18-20° C. for 30-40 min. The upper layer of plasma was aspirated with a Pasteur pipette, and the PBMC layer (approximately 2 mL) was aspirated, and added to a 14 mL centrifuge tube previously filled with at least 3 volumes (6 mL) of PBS. The mixture was gently resuspended. The tube was centrifuged at 60-100 g for 10 min at 18-20° C. After centrifugation, the supernatant was removed with a Pasteur pipette, and the resulting cell mass was resuspended in 6-8 mL PBS and centrifuged at 18-20° C. for 10 min at 60-100 g to remove the supernatant. The cells were resuspended in an appropriate amount of 1640 complete medium and diluted to 1×10^6 cell/ml after cell counting. The diluted cell suspension was added to a 96-well plate. The positive control, allosteric peptide, was added to 100 μl cell culture to a final concentration of 10 μg/ml. The mixture was replenished to 200 μL with 1640 complete medium. After 5 days of culture, the supernatant was aspirated, centrifuged at 3000 rpm for 5 minutes, and the level of IL-6 in the supernatant was detected by ELISA.

[4] = system: CIA rats with latent tuberculosis infection; settings: for Observation on the daily condition of rats: during administration; for Tuberculosis recurrence rate / Inflammation score and area under the time curve (AUC) / Culture of MTB from lungs and spleens of rats at sacrifice: peptides 0.2 mmol, adalimumab 1 mg/kg; for Tuberculosis recurrence rate: 21 days; for Inflammation score and area under the time curve (AUC): tail i.v. once every other day for 21 days; for Culture of MTB from lungs and spleens of rats at sacrifice: sacrifice on day 22

| Molecule | ALT level [1] | Observation on the daily condition of mice [1] | Inflammation score and area under the time curve (AUC) [1] | CD3% [2] | CD4% [2] | CD8% [2] | IFN-γ [2] | IL-2 [2] | IL-4 [2] | TNF-α [2] | CD3% [3] | CD4% [3] | CD8% [3] | IFN-γ [3] | IL-2 [3] | IL-4 [3] | TNF-α [3] | Inflammation score and area under the time curve (AUC) (CIA rats) | Th1 (%) (CIA rats) | Th2 (%) (CIA rats) | other results |
| --- | --- | --- | --- | --- | --- | --- | --- | --- | --- | --- | --- | --- | --- | --- | --- | --- | --- | --- | --- | --- | --- |
| CC[C@H](C)[C@H](N)C(=O)N[C@@H](Cc1c[nH]c2ccccc12)C(=O)N[C@@H](Cc1ccc(O)cc1)C(=O)N[C@H](C(=O)N[C@@H](CO)C(=O)N[C@@H](CS)C(=O)N[C@@H](Cc1ccccc1)C(=O)NCC(=O)N[C@@H](CS)C(=O)N[C@@H](CCC(=O)O)C(=O)N[C@H](C(=O)N[C@@H](Cc1c[nH]cn1)C(=O)N[C@@H](C)C(=O)N[C@@H](CCSC)C(=O)N[C@@H](CC(C)C)C(=O)O)[C@@H](C)O)[C@@H](C)CC [APL9] (H-IWYISCFGCETHAML-OH; N-terminus and C-terminus assumed) | 47.55 ± 18.78 U/L | No abnormality | 97.63 ± 50.13 | 66.91 ± 11.93% | 28.67 ± 14.78% | 28.67 ± 14.78% | 5.01 ± 0.69 pg/mL | 4.60 ± 0.55 pg/mL | 2.24 ± 0.12 pg/mL | 2.38 ± 0.24 pg/mL | 36.08 ± 12.9% | 20.45 ± 8.45% | 17.10 ± 8.82% | 2.35 ± 0.27 pg/mL | 3.03 ± 1.05 pg/mL | 1.95 ± 0.95 pg/mL | 4.79 ± 1.08 pg/mL | 57.39 ± 39.33 | 0.20 ± 0.05 % | 4.27 ± 0.53% | Hepatitis B activation rate (Ratio of ALT > 100 U/L) [1]: 0%; Th17 (%) (CIA rats): 0.95 ± 0.12 %; Treg (%) (CIA rats): 5.35 ± 0.84 %; IL-6 levels in the supernatant (PBMC): 2.8 ng/mL; Observation on the daily condition of rats [4]: No abnormality; Tuberculosis recurrence rate [4]: 0%; Inflammation score and area under the time curve (AUC) [4]: 54.49 ± 33.12; Culture of MTB from lungs and spleens of rats at sacrifice [4]: Negative |
| MGPKGRTVIIEQSLGSPKVTK [APL21] | 48.29 ± 21.24 U/L | No abnormality | 95.71 ± 51.88 | 66.16 ± 4.34% | 23.43 ± 8.46% | 23.43 ± 8.46% | 5.03 ± 0.22 pg/mL | 4.18 ± 0.41 pg/mL | 1.90 ± 0.15 pg/mL | 2.16 ± 0.14 pg/mL | 38.16 ± 8.98% | 18.72 ± 5.85% | 19.06 ± 5.4% | 2.64 ± 0.37 pg/mL | 3.36 ± 1.45 pg/mL | 2.32 ± 1.37 pg/mL | 5.25 ± 1.28 pg/mL | 59.44 ± 38.29 | 0.19 ± 0.08 % | 4.23 ± 0.47% | Hepatitis B activation rate (Ratio of ALT > 100 U/L) [1]: 0%; Th17 (%) (CIA rats): 0.98 ± 0.10%; Treg (%) (CIA rats): 5.14 ± 0.90 %; IL-6 levels in the supernatant (PBMC): 4.2 ng/mL; Observation on the daily condition of rats [4]: No abnormality; Tuberculosis recurrence rate [4]: 0%; Inflammation score and area under the time curve (AUC) [4]: 53.06 ± 37.25; Culture of MTB from lungs and spleens of rats at sacrifice [4]: Negative |
| YAKQATLALA [APL7] | 48.53 ± 20.09 U/L | No abnormality | 96.19 ± 48.25 | 61.83 ± 11.98% | 26.23 ± 7.31% | 23.72 ± 6.35% | 5.27 ± 0.59 pg/mL | 4.24 ± 0.34 pg/mL | 2.04 ± 0.19 pg/mL | 2.44 ± 0.22 pg/mL | 36.69 ± 17^ % | 18.29 ± 9.08% | 18.66 ± 8.61% | 2.33 ± 0.29 pg/mL | 3.06 ± 0.97 pg/mL | 2.55 ± 1.30 pg/mL | 5.42 ± 1.23 pg/mL | 60.48 ± 37.31 | 0.17 ± 0.10 % | 4.38 ± 0.81 % | Th17 (%) (CIA rats): 0.92 ± 0.08%; Treg (%) (CIA rats): 5.22 ± 0.77 %; IL-6 levels in the supernatant (PBMC): 3.7 ng/mL; Observation on the daily condition of rats [4]: No abnormality; Tuberculosis recurrence rate [4]: 0%; Inflammation score and area under the time curve (AUC) [4]: 55.93 ± 29.87; Culture of MTB from lungs and spleens of rats at sacrifice [4]: Negative |
